Tests used:
[1] = system: Brca1/P53-deficient mice; test: Ki-67 immunohistochemistry as a proliferation marker in the mammary epithelium; format: in vivo
Protocol: (§1) Subsequently, the same groups of animals indicated were generated and samples were collected from the mammary glands at 1, 3, 7, 30 and 60 days post-gestation (in non-lactating multiparous) or post-weaning (in lactating multiparous, with and without treatment with cabergoline) (N = 5 mice per group at each time studied).
Ki67 staining was performed at the Comparative Molecular Pathology Service of the Cancer Molecular and Cellular Biology Institute in Salamanca. Sections of the sample were made at 3 µm thickness. Sections were fished onto slides specially treated for this technique (Leica BOND Plus Slides, #S21.2113.A, Leica). The staining process was carried out using the Roche Discovery ULTRA research instrument. The protocol performed by the apparatus is as follows: deparaffinization of the sample, heating the slide to 69 °C; cell conditioning that consisted in the unmasking of the epitope by incubating the sample in a buffer formed by TRIS EDTA pH8 at a temperature of 100 °C for 32 minutes. Next, the primary antibody (Rabbit Anti-Human Ki-67 Monoclonal Antibody (Clone SP6), #MAD-020310Q, Master Diagnostica) was applied manually at a 1:50 dilution and incubated at 37 °C for 60 minutes. After incubation of the primary antibody, two washes with HRP buffer were performed. […]
To quantify cells positive for Ki-67 or caspase 3, the Leica Application Suite (LAS) V3.7 program was used. […]

[2] = system: Brca1/P53-deficient mice; test: Quantification of adipose and ductal tissue areas in the breast (hematoxylin-eosin, ImageJ); format: in vivo; conditions: for adipose tissue area: vs untreated lactating multiparous mice, P < 0.001
Excerpt: as §1
The left inguinal breast of each mouse was embedded in paraffin for further study. Once removed from the animals, the breasts were fixed in 4% paraformaldehyde (Scharlau FO) for 24 hours and, subsequently, they were kept in 70% ethanol at a temperature of 4 °C, until they were processed in the Comparative Molecular Pathology Service of the Salamanca Cancer Research Center. Tissues were dehydrated by three 1-hour incubations in increasing concentrations of ethanol (60%, 80%, and 100%). Three other 1-hour incubations were carried out in xylol, to replace the dehydrating agent with a substance miscible in paraffin. Finally, three other incubations of 1 hour and 20 minutes were carried out with liquid paraffin, after which blocks were made with a mould suitable for the size of the tissue in a paraffin embedding station. When the paraffin blocks were completely cold, 2-µm-thick sections were made using a rotation microtome (Leica RM2255).
Hematoxylin and eosin staining was performed in the Comparative Molecular Pathology Service of the Salamanca Cancer Research Center using a battery of manual staining following the processes: deparaffinization in xylol, rehydration with ethanol at different graduations, hematoxylin and eosin staining, dehydration with ethanol and clearance. Once the process was finished, the samples were mounted by adding a drop of non-aqueous DPX fixative and the coverslip was placed.
Adipose tissue area and ductal area were evaluated using ImageJ free software. The ductal area was defined as the surface occupied by the epithelium of the ducts together with the surrounding fibrous tissue stroma, excluding the area of the tubular lumen. To evaluate the ductal and adipocyte area, 10 photos were taken at 10X magnification of the surface of the mammary gland of each of the study animals, five photos in the distal area and five in the proximal area of the breast. The photos were taken randomly in each of these areas of the samples stained with hematoxylin-eosin, with a Leica DM1000 light microscope. […] In the proximal area, more adipose tissue and less ductal tissue were observed than in the distal area, and vice versa. For this reason, only the values of the distal zone were determined to carry out the analyses.
The quantification was expressed as a percentage of the total area. […]

With C=CCN1C[C@H](C(=O)N(CCCN(C)C)C(=O)NCC)C[C@@H]2c3cccc4[nH]cc(c34)C[C@H]21 [cabergoline, 1-[(6-allylergolin-8ß-yl)-carbonyl]-1-[3-(dimethylamino)propyl]-3-ethylurea] the “epithelial proliferation (% of Ki67+ cells)” value ([1]; 30 days post-weaning) was “profound hypoproliferative state”, the “epithelial proliferation (% of Ki67+ cells)” value ([1]; 60 days of post-lactational involution) was “hypoproliferative state” and the adipose tissue area ([2]; 3 days after weaning) was “statistically significant increase in adipose tissue”. The adipose tissue area ([2]; 7 days after weaning) was “statistically significant increase in adipose tissue”, the ductal area ([2]; 30 days post-lactational involution) was “drastic decrease in ductal area” and the “ductal area (epithelial component)” value ([2]; 60 days post-lactational involution) was “great reduction of the epithelial component”.

Reference: EP4285905A1, “CABERGOLINE OR A PHARMACEUTICALLY ACCEPTABLE SALT OR SOLVATE THEREOF, FOR USE IN PREVENTION OR DELAY OF POST-PREGNANCY BREAST CANCER IN A FEMALE MAMMAL” (Consejo Superior de Investigaciones Cientificas, priority 2022, dated 2023)
